Test results taken from patent publication US12577526B2, “Massively parallel on-chip construction of synthetic microbial communities” (MASSACHUSETTS INSTITUTE OF TECHNOLOGY, priority 2019, dated 2026).
Entries after “also recorded” stand apart in the source; their conditions may differ.

The molecules below were run on Herbaspirillum frisingense (Hf-GFP) (assay: Hf-GFP facilitation screen on kChip (Hf-GFP yield in co-culture with soil isolate compositions, single carbon sources)). Conditions: single carbon source 0.5% w/v, by 72 hours.
Assay type: cell-based
Protocol: Microbial cultures were prepared as described in the “Microbial culture input preparation” section above. The culture medium for H. frisingense revival from a glycerol stock also included the selection antibiotic kanamycin (30 μg/mL). Six carbon sources (galactose, glucose, fructose, raffinose, lactose, sucrose) were prepared as described in the “Carbon source input preparation” section above to a concentration of 2% w/v, which were added 1:1 with MM+0.05% w/v BSA to produce 1×MM+1% w/v carbon source (six unique MM each with one carbon source). A plate of 16 color codes were also prepared in advance at 50 μM total concentration (“kChip input preprocessing” section above).
At the onset of the screen, all cultures were washed three times and resuspended in MM+0.05% w/v BSA (no carbon source) and normalized to an initial OD600=0.08. A “droplet plate” (96-well plate) was prepared whereby each of 16 wells, corresponding to the 16 input conditions of the screen, received the following four elements: (1) 50 μL MM+1% w/v carbon source; (2) 25 μL unique soil isolate at OD600=0.08 (or a no-isolate control or a negative control); (3) 25 μL Hf-GFP at OD600=0.08; and (4) 2 μL 50 μM color code. The two controls, a negative control and a no-isolate control, were in principle the same (just different color codes), with the negative control used to measure Hf-GFP monocultures and the no-isolate used to calculate isolate-mediated differences. The carbon source and color code were mixed in advance, though the cultures were added just before making droplets to load on a kChip.
After emulsification, each 1-nL droplet contained the following: (1) 0.5% w/v carbon source; (2) soil isolate at OD600=0.02 (˜20 cells) (or no-isolate control or negative control); (3) Hf-GFP at OD600=0.02 (˜20 cells); and (4) a set of color code (total concentration of all three fluorescent dyes at 1 μM). Droplets were prepared for each carbon source at a time and loaded onto a k={1:7;19} Chip, i.e. first all sucrose-containing droplets were prepared and loaded onto the first kChip in the screen, then all lactose-containing droplets were prepared and loaded onto the second kChip, and so forth. Because there were only 16 inputs in total, there were no instances where all inputs were unique in k=19 microwells. The instant analysis was focused upon the k=1-7 microwells, and specifically on instances where all droplets within a given microwell were unique. Throughput tradeoffs associated with this number of inputs and k values are discussed below.
After loading droplets, the kChip was imaged to read the color-code of each droplet (“pre-merge” scan) and droplet sets were merged within their corresponding microwells (“Droplet making and kChip loading” section above). The post-merge communities contained the following: (1) 0.5% w/v carbon source; (2) k=1, 2, 3, 4, 5, 6, 7, or 19 soil isolates collectively at OD600=0.02 (or no-isolate control or negative control); (3) Hf-GFP at OD600=0.02; and (4) 1 μM mixed color codes (no longer serving a purpose). […]

| Molecule | Hf-GFP monoculture growth/yield on the carbon source |
| --- | --- |
| OC[C@H]1O[C@H](OC[C@H]2O[C@H](O[C@]3(CO)O[C@H](CO)[C@@H](O)[C@@H]3O)[C@H](O)[C@@H](O)[C@@H]2O)[C@H](O)[C@@H](O)[C@H]1O [raffinose] | low |
| O=C(CO)[C@@H](O)[C@H](O)[C@H](O)CO [fructose] | low |
| OC[C@H]1O[C@@H](O[C@H]2[C@H](O)[C@@H](O)C(O)O[C@@H]2CO)[C@H](O)[C@@H](O)[C@H]1O (stereo partly drawn) [lactose] | low |
| OC[C@H]1O[C@@](CO)(O[C@H]2O[C@H](CO)[C@@H](O)[C@H](O)[C@H]2O)[C@@H](O)[C@@H]1O [sucrose] | indistinguishable from background; also recorded: undetectably low |
| O=C[C@H](O)[C@@H](O)[C@@H](O)[C@H](O)CO [galactose] | high yield |

What follows are molecules tested on panel of seven fluorescent strains (assay: not given). Conditions: cultures unable to grow on a given carbon source, BSA added.

| Molecule | serving as an alternative carbon source (false positive growth) |
| --- | --- |
| bovine serum albumin [BSA] | caused no false positives |
